≈ marks a conversion by molar mass, not a printed value. Where a name gives a salt, the structure may show the parent alone. One block for each compound: values may come before it.
Assays:
[1] = Aqueous solubility of salts at 25° C.; assay type: physicochemical; details: water, 25° C., mg free acid equivalent/mL; for Solubility in Water: dipotassium salt
[2] = Solid-state stability (HPLC % area after storage); assay type: physicochemical; details: for Solid-state stability % Area: 4 weeks
Method: (§1) Various compounds disclosed herein have been placed on long-term solid-state stability protocol. The compounds were stored in glass vials closed with PTFE lined caps at 30° C./65% RH, 40° C./75% RH, 50° C. and 60° C. (ambient humidity). The results of the study after 4 weeks are shown in Table B1 and after 3 months in Table B2. Appearance and purity analysis were conducted using HPLC and XPRD. The HPLC analyses were conducted using standard equipment such as a Agilent HP1100 HPLC (Station ID: LZPES HPLC 04) with YMC-Pack ODS-AQ sub 3 μm, 150×4.6 mm

[3] = XRPD crystal form after storage; assay type: physicochemical; details: 4 weeks storage
Method: as §1, with “mm Samples were prepared for XRPD by sprinkling ˜20 mg onto a Si wafer zero background plate and pressing the material flat to ensure the surface is smooth and level. The samples were analyzed according the equipment parameters below.” for “mm”

Streptococcus pneumoniae = test: Broth microdilution MIC; assay type: cell-based; details: ATCC49619
Method: (§2) Bacterial Isolates. Organisms tested in this study are listed in Table P. Clinical isolates consisted of 5 Staphylococcus aureus (MSSA), 3 Staphylococcus aureus (HA-MRSA), 2 Staphylococcus aureus (CA-MRSA), 2 Enterococcus faecalis (VSE), 2 Streptococcus pyogenes, and 2 Escherichia coli (susceptible to most antibiotics). S. aureus ATCC 29213, E. faecalis ATCC 29212, S. pneumoniae ATCC 49619, and E. coli ATCC 25922 were tested for the purposes of quality control.
(§3) Minimal Inhibitory Concentrations (MIC) values against the selected isolates were determined using the reference broth microdilution method according to the Clinical Laboratory Standards Institute (CLSI) guidelines.
(§4) The MIC was read and recorded as the lowest concentration of drug that inhibited visible growth of the organism.

Escherichia coli = test: Broth microdilution MIC; assay type: cell-based
Method: as §2, §3, §4

Staphylococcus aureus = test: Broth microdilution MIC; assay type: cell-based; details: Staphylococcus aureus
Method: as §2, §3, §4

Enterococcus faecalis = test: Broth microdilution MIC; assay type: cell-based
Method: as §2, §3, §4

Streptococcus pyogenes = test: Broth microdilution MIC; assay type: cell-based
Method: as §2, §3, §4

Compound: (E)-6-[(N-methyl-((3-methylbenzofuran-2-yl)methyl)amino)-3-oxoprop-1-en-1-yl)-2-oxo-3,4-dihydro-1,8-naphthyridin-1(2H)-yl]methylphosphate dipotassium salt [Bis-Potassium (amorphous) (Compound 11)]
- Solubility in Water [1]: >100 mg/mL

- content after storage (degradation) ([2]; 4 weeks at 40/75): ~65%
- chemical stability ([2]; over 1 month at 30° C./65% RH, 40° C./75% RH and 50° C., closed vials, light protected): not chemically stable
- change in XRPD [3]: some changes
Compound: Cc1c(CN(C)C(=O)/C=C/c2cnc3c(c2)CCC(=O)N3COP(=O)([O-])[O-])oc2ccccc12.[K+].[K+] [Compound 11]

Compound: CN[C@H](CC(C)C)C(=O)N[C@H]1C(=O)N[C@@H](CC(N)=O)C(=O)N[C@H]2C(=O)N[C@H]3C(=O)N[C@H](C(=O)N[C@H](C(=O)O)c4cc(O)cc(O)c4-c4cc3ccc4O)[C@H](O)c3ccc(c(Cl)c3)Oc3cc2cc(c3O[C@@H]2O[C@H](CO)[C@@H](O)[C@H](O)[C@H]2O[C@H]2C[C@](C)(N)[C@H](O)[C@H](C)O2)Oc2ccc(cc2Cl)[C@H]1O [Vancomycin]
- MIC (Streptococcus pneumoniae): 0.12 mg/L (≈ 0.0828 µM)
- MIC (Escherichia coli; E. coli 5255): >64 mg/L
- MIC (Escherichia coli; Escherichia coli): > 64 mg/L
- MIC (Escherichia coli; Escherichia coli, ATCC25922): > 64 mg/L
- MIC (Staphylococcus aureus; ATCC29213, S. aureus ATCC 29213): 0.5 mg/L (≈ 0.345 µM)
- MIC (Staphylococcus aureus; MRSA, S. aureus 3083, HA-MRSA): 0.5 mg/L (≈ 0.345 µM)
- MIC (Staphylococcus aureus; MRSA, S. aureus 3086, HA-MRSA): 1 mg/L (≈ 0.69 µM)
- MIC (Staphylococcus aureus; MRSA, S. aureus 3265, HA-MRSA): 0.5 mg/L (≈ 0.345 µM)
- MIC (Staphylococcus aureus; MSSA, S. aureus 3104): 0.5 mg/L (≈ 0.345 µM)
- MIC (Staphylococcus aureus; MSSA, S. aureus 3107): 0.5 mg/L (≈ 0.345 µM)
- MIC (Staphylococcus aureus; MSSA, S. aureus 3245): 0.5 mg/L (≈ 0.345 µM)
- MIC (Staphylococcus aureus; MSSA, S. aureus 3250): 0.5 mg/L (≈ 0.345 µM)
- MIC (Staphylococcus aureus; MSSA, S. aureus 3856): 1 mg/L (≈ 0.69 µM)
- MIC (Staphylococcus aureus; S. aureus 2168, CAMRSA): 1 mg/L (≈ 0.69 µM)
- MIC (Staphylococcus aureus; S. aureus 2294, CAMRSA): 1 mg/L (≈ 0.69 µM)
- MIC (Enterococcus faecalis; ATCC29212, E. faecalis ATCC 29212): 1 mg/L (≈ 0.69 µM)
- MIC (Enterococcus faecalis; E. faecalis 4158, VSE): > 64 mg/L
- MIC (Enterococcus faecalis; E. faecalis 4212, VSE): 16 mg/L (≈ 11 µM)
- MIC (Streptococcus pyogenes; S. pyogenes 6528): 0.25 mg/L (≈ 0.173 µM)
- MIC (Streptococcus pyogenes; Streptococcus pyogenes): 0.25 mg/L (≈ 0.173 µM)

Compound: Cc1c(CN(C)C(=O)/C=C/c2cnc3c(c2)CCC(=O)N3COP2(=O)[O][Ca][O]2)oc2ccccc12 [Compound 13, (E)-6-[(N-methyl-((3-methylbenzofuran-2-yl)methyl)amino)-3-oxoprop-1-en-1-yl)-2-oxo-3,4-dihydro-1,8-naphthyridin-1(2H)-yl]methylphosphate calcium salt]
- solubility ([1]; thermodynamic from solid, read-out: Solubility in Water): < 0.1 mg/mL

Compound: (E)-6-[(N-methyl-((3-methylbenzofuran-2-yl)methyl)amino)-3-oxoprop-1-en-1-yl)-2-oxo-3,4-dihydro-1,8-naphthyridin-1(2H)-yl]methylphosphate dipotassium salt [Bis-Potassium (crystalline) (Compound 11)]
- Solid-state stability % Area ([2]; 30° C./65% RH): 87.8 % Area
- Solid-state stability % Area ([2]; 40° C./75% RH): 64.3 % Area
- Solid-state stability % Area ([2]; 50° C./ambient humidity): 72.5 % Area
- Solid-state stability % Area ([2]; 60° C./ambient humidity): 50.7 % Area
- Solid-state stability % Area ([2]; Control (ambient lab conditions protected from light)): 95.4 % Area
- Solubility in Water [1]: 30 to 35 mg/mL

— patent publication US8901105B2, “Prodrug derivatives of (E)-N-methyl-N-((3-M ethylbenzofuran-2-yl)methyl)-3-(7-oxo-5,6,7,8-tetrahydro-1,8-naphthyridin-3-yl)acrylamide” (Affinium Pharmaceuticals, Inc., priority 2012, dated 2014)
